Experimental data: the NIST ThermoML archive (doi:10.1021/je300405a)

Conditions: Liquid; for mass density: Vibrating tube method; for speed of sound: Pulse-echo method

CCCCCCCCCC(=O)OCC [ethyl decanoate]
Conditions | mass density, 343.15 K [kg/m3] | mass density, 353.15 K [kg/m3] | mass density, 363.15 K [kg/m3] | mass density, 373.15 K [kg/m3] | mass density, 383.15 K [kg/m3] | mass density, 393.15 K [kg/m3] | speed of sound, 343.15 K [m/s] | speed of sound, 363.15 K [m/s] | speed of sound, 383.15 K [m/s] | speed of sound, 403.15 K [m/s]
101.3 kPa | – | 814.4 | 806.38 | 797.32 | 789.45 | 780.85 | – | 1065.9 | 1001.3 | 937.8
10000 kPa | – | 823.62 | 815.94 | 807.87 | 800.55 | 792.15 | – | 1130.1 | 1071.1 | 1013.4
20000 kPa | – | 832.14 | 824.71 | 817.14 | 810.35 | 802.27 | – | 1188.5 | 1132.9 | 1080.3
30000 kPa | – | 839.63 | 832.73 | 825.49 | 819.06 | 811.47 | – | 1241.2 | 1188.3 | 1138.6
40000 kPa | – | 846.7 | 840.08 | 833.44 | 826.96 | 819.79 | – | 1289.6 | 1239.3 | 1191.3
50000 kPa | – | 853.22 | 846.82 | 840.48 | 834.28 | 827.43 | – | 1334.7 | 1286.4 | 1240.5
60000 kPa | – | 859.34 | 853.11 | 847.06 | 841.17 | 834.45 | – | 1376.5 | 1329.7 | 1285.9
70000 kPa | 871.46 | 865.16 | 859.26 | 853.14 | 847.62 | 840.99 | – | 1415.4 | 1370.2 | 1328.1
80000 kPa | 876.76 | 870.61 | 864.82 | 859.2 | 853.58 | 847.2 | 1500.3 | 1452.8 | 1408.3 | 1367.6
90000 kPa | 881.86 | 875.77 | 870.11 | 864.65 | 859.32 | 852.99 | 1535.3 | 1488.9 | 1445 | 1404.6
100000 kPa | 886.72 | 880.75 | 875.14 | 869.76 | 864.87 | 858.42 | 1568.4 | 1522.8 | 1480 | 1439.8
110000 kPa | – | – | – | – | – | – | 1600.4 | 1556 | 1513.4 | 1473.4
120000 kPa | – | – | – | – | – | – | 1631.5 | 1586.9 | 1545.8 | 1506.4
130000 kPa | – | – | – | – | – | – | 1661.5 | 1617.1 | 1576.6 | 1537.5
140000 kPa | – | – | – | – | – | – | 1690 | 1646.6 | 1606.2 | 1567.3
150000 kPa | – | – | – | – | – | – | 1717.3 | 1675.1 | 1634.6 | 1596.2
170000 kPa | – | – | – | – | – | – | 1769.7 | 1727.6 | 1687.7 | 1650.9
190000 kPa | – | – | – | – | – | – | 1818.5 | 1777 | 1740.7 | 1702.8
210000 kPa | – | – | – | – | – | – | 1865 | 1824.5 | 1786.8 | 1751.8
